Source: US20210145716A9, “COMPOSITION FOR HAIR FRIZZ REDUCTION” (The Procter & Gamble Company, priority 2015, published 2021)

Test: Expert rating of hair switches for frizz, clean feel and greasy feel
Conditions: 1% in ethanol/water leave-on, pH 4.2
Description: Additional leave-on treatment compositions are prepared (Tables 1 and 2) according to the procedure described above, which are used to treat hair switches using the procedure described above (amount of 0.10 g of composition per g of hair). The switch is kept at high humidity (above 85%) for 2 hours. Then, ten experts are asked to rate each hair switch in terms of frizz, clean feel, and greasy feel, based on a 5 point scale, 5 being the highest and 1 being the lowest rating. Acceptable values are: • For frizz, less than 2 (lower number corresponds to less frizz); • For no greasy feel less than 3, (lower number corresponds to less greasy feel), and • For clean feel greater than 3 (higher number corresponds to cleaner feel).

SMILES | Hair switch rating summary (in words)
O=C(O)c1ccc(O)cc1O [2,4-Dihydroxybenzoic acid] | fizz protection with clean feel and without greasy feel negative
CCCCCCCCC(CO)CCCCCC (stereo not shown) [2-Hexyl-1-decanol] | frizz protection with clean feel and without greasy feel negative
O=C(OCCO)c1ccccc1O [2-Hydroxyethyl salicylate] | frizz protection with clean feel and without greasy feel negative
O=S(=O)(O)c1ccc(O)cc1 [4-Hydroxybenzenesulphonic acid] | fizz protection with clean feel and without greasy feel negative
O=C(O)c1cc(Cl)ccc1O [5-Chlorosalicylic acid] | fizz protection with clean feel and without greasy feel negative
CC(C)CCCCCCCCCCCCCCCOC(=O)CCCCCCCCCCCCCCC(C)C [Isostearyl isostearate] | frizz protection with clean feel and without greasy feel negative
O=C(O)c1ccccc1O [Salicylic acid] | fizz protection with clean feel and without greasy feel negative
